Data on 23 compounds can be found in PubChem BioAssay AID248 (DTP/NCI, 2004).

Toxic doses and inconclusive results are not listed.

In this assay the test system is L1210 leukemia ip in BDF1 mice, survival T/C. In words: NCI In Vivo Anticancer Drug Screen. Data for tumor model L1210 Leukemia (intraperitoneal) in B6D2F1 (BDF1) mice. The settings on record: endpoint: mean survival time, higher = longer survival. The method in brief: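 Tumor was transplanted into mice, which were then dosed with test compound or vehicle alone. Survival was recorded for each group, and the treated figure was expressed relative to the control figure.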

Setting [1] is: dose: 400.0 mg/kg/injection, schedule: Q01DX001 (ip), vehicle: other.
Setting [2] is: dose: 100.0 mg/kg/injection, schedule: Q01DX009 (ip), vehicle: saline.
The mark [3] stands for this setting: dose: 100.0 mg/kg/injection, schedule: Q04DX003 (ip), vehicle: saline.
[4] abbreviates: dose: 200.0 mg/kg/injection, schedule: Q01DX009 (ip), vehicle: saline.
Where [5] appears, read: dose: 200.0 mg/kg/injection, schedule: Q04DX003 (ip), vehicle: saline.
The mark [6] stands for this setting: dose: 100.0 mg/kg/injection, schedule: Q04DX002 (ip), vehicle: Klucel (hydroxypropylcellulose) (HPC).
The mark [7] stands for this setting: dose: 200.0 mg/kg/injection, schedule: Q04DX002 (ip), vehicle: Klucel (hydroxypropylcellulose) (HPC).
Where [8] appears, read: dose: 400.0 mg/kg/injection, schedule: Q04DX002 (ip), vehicle: Klucel (hydroxypropylcellulose) (HPC).
Where [9] appears, read: dose: 100.0 mg/kg/injection, schedule: Q04DX003 (ip), vehicle: Klucel (hydroxypropylcellulose) (HPC).
[10] abbreviates: dose: 200.0 mg/kg/injection, schedule: Q04DX003 (ip), vehicle: Klucel (hydroxypropylcellulose) (HPC).
Where [11] appears, read: dose: 50.0 mg/kg/injection, schedule: Q01DX001 (ip), vehicle: saline.
Where [12] appears, read: dose: 100.0 mg/kg/injection, schedule: Q01DX001 (ip), vehicle: saline.
The mark [13] stands for this setting: dose: 200.0 mg/kg/injection, schedule: Q01DX001 (ip), vehicle: saline.
Setting [14] is: dose: 400.0 mg/kg/injection, schedule: Q01DX001 (ip), vehicle: saline.
[15] abbreviates: dose: 100.0 mg/kg/injection, schedule: Q01DX001 (ip), vehicle: Klucel (hydroxypropylcellulose) (HPC).
The mark [16] stands for this setting: dose: 200.0 mg/kg/injection, schedule: Q01DX001 (ip), vehicle: Klucel (hydroxypropylcellulose) (HPC).
The mark [17] stands for this setting: dose: 400.0 mg/kg/injection, schedule: Q01DX001 (ip), vehicle: Klucel (hydroxypropylcellulose) (HPC).
Setting [18] is: dose: 100.0 mg/kg/injection, schedule: Q04DX003 (ip), vehicle: carboxymethylcellulose (CMC).
[19] abbreviates: dose: 200.0 mg/kg/injection, schedule: Q04DX003 (ip), vehicle: carboxymethylcellulose (CMC).
[20] abbreviates: dose: 400.0 mg/kg/injection, schedule: Q04DX003 (ip), vehicle: carboxymethylcellulose (CMC).

`COc1cc2c(cc1NC(=O)N(CCCl)N=O)-c1ccccc1C2`: the T/C is, setting by setting: (dose: 22.0 mg/kg/injection, schedule: Q01DX009 (ip), vehicle: carboxymethylcellulose (CMC)) 150 % of control; (dose: 33.0 mg/kg/injection, schedule: Q01DX009 (ip), vehicle: carboxymethylcellulose (CMC)) 152 % of control; (dose: 50.0 mg/kg/injection, schedule: Q01DX009 (ip), vehicle: carboxymethylcellulose (CMC)) 169 % of control; (dose: 75.0 mg/kg/injection, schedule: Q01DX009 (ip), vehicle: carboxymethylcellulose (CMC)) 152 % of control; (dose: 118.0 mg/kg/injection, schedule: Q01DX009 (ip), vehicle: carboxymethylcellulose (CMC)) 250 % of control; (dose: 177.0 mg/kg/injection, schedule: Q01DX001 (ip), vehicle: other) 123 % of control. Besides, the T/C by setting is: (dose: 177.0 mg/kg/injection, schedule: Q01DX009 (ip), vehicle: carboxymethylcellulose (CMC)) 256 % of control; (dose: 266.0 mg/kg/injection, schedule: Q01DX001 (ip), vehicle: carboxymethylcellulose (CMC)) 151 % of control; (dose: 266.0 mg/kg/injection, schedule: Q01DX001 (ip), vehicle: other) 155 % of control; (dose: 266.0 mg/kg/injection, schedule: Q01DX009 (ip), vehicle: carboxymethylcellulose (CMC)) 284 % of control; (dose: 400.0 mg/kg/injection, schedule: Q01DX001 (ip), vehicle: carboxymethylcellulose (CMC)) 173 % of control; under setting [1], 170 % of control. The T/C (dose: 400.0 mg/kg/injection, schedule: Q01DX009 (ip), vehicle: carboxymethylcellulose (CMC)) was 196 % of control; the T/C (dose: 600.0 mg/kg/injection, schedule: Q01DX001 (ip), vehicle: carboxymethylcellulose (CMC)) is 196 % of control; the T/C (dose: 600.0 mg/kg/injection, schedule: Q01DX001 (ip), vehicle: other) is 164 % of control.

As for `O=S1(=O)CC(O)C(Cl)C1` (centres undefined), the T/C reads like this: (dose: 50.0 mg/kg/injection, schedule: Q01DX009 (ip), vehicle: saline) 101 % of control; under setting [2], 94 % of control; under setting [3], 98 % of control; under setting [4], 94 % of control; under setting [5], 94 % of control.

As to `CCNC(=O)NCCN1CCOCC1`, the T/C reads like this: under setting [2], 95 % of control; under setting [4], 98 % of control; (dose: 400.0 mg/kg/injection, schedule: Q01DX009 (ip), vehicle: saline) 104 % of control.

In the case of `CC1(C)CC(=O)C(N=Nc2ccccc2)=C(O)C1`, the T/C is, setting by setting: under setting [6], 105 % of control; under setting [7], 108 % of control; under setting [8], 94 % of control.

As for `N#Cc1cccc(CS(=O)(=O)c2ccccc2)c1`, the T/C was 104 % of control under setting [6], 96 % of control under setting [7] and 89 % of control under setting [8].

In the case of `CCCC/C(=N/NC(N)=O)C(OC)OC`, the T/C was 92 % of control (dose: 100.0 mg/kg/injection, schedule: Q01DX001 (ip), vehicle: other); 86 % of control (dose: 200.0 mg/kg/injection, schedule: Q01DX001 (ip), vehicle: other); 94 % of control under setting [1].

In the case of `COc1ccc(C=C2c3ccccc3-c3ccccc32)cc1`, the T/C (dose: 100.0 mg/kg/injection, schedule: Q04DX003 (ip), vehicle: saline sonified) is 95 % of control; the T/C (dose: 200.0 mg/kg/injection, schedule: Q04DX003 (ip), vehicle: saline sonified) was 100 % of control; the T/C (dose: 400.0 mg/kg/injection, schedule: Q04DX003 (ip), vehicle: saline sonified) is 94 % of control.

Turning to `COc1ccc(CCC(C)=O)cc1OC`, the T/C is, setting by setting: (dose: 100.0 mg/kg/injection, schedule: Q01DX009 (ip), vehicle: Klucel (hydroxypropylcellulose) (HPC)) 97 % of control; (dose: 200.0 mg/kg/injection, schedule: Q01DX009 (ip), vehicle: Klucel (hydroxypropylcellulose) (HPC)) 93 % of control.

Consider `CN1C(=O)CC[n+]2ccccc21`, for which the T/C under setting [3] is 101 % of control; the T/C under setting [5] was 104 % of control; the T/C (dose: 400.0 mg/kg/injection, schedule: Q04DX003 (ip), vehicle: saline) was 86 % of control.

With `CC1C(C(C)(C)C)N1C` (centres undefined), the T/C by setting is: under setting [9], 108 % of control; under setting [10], 110 % of control.

For the compound `CCC1CN1C(=O)c1ccc(OP(=O)(N2CC2CC)N2CC2CC)cc1` (centres undefined), the T/C was 102 % of control under setting [11], 102 % of control under setting [12], 105 % of control under setting [13] and 102 % of control under setting [14].

On to `Cc1cnc(SCc2ccc(Cl)cc2)nc1N(C)C`, for which the T/C (dose: 25.0 mg/kg/injection, schedule: Q01DX Z (ip), vehicle: methylcellulose (MC)) is 90 % of control and the T/C (dose: 50.0 mg/kg/injection, schedule: Q01DX Z (ip), vehicle: methylcellulose (MC)) is 100 % of control.

`Cc1ccccc1N=Cc1cccc([N+](=O)[O-])c1`: the T/C under setting [15] was 107 % of control; the T/C under setting [9] was 98 % of control; the T/C under setting [16] is 107 % of control; the T/C under setting [10] is 101 % of control; the T/C under setting [17] is 112 % of control; the T/C (dose: 400.0 mg/kg/injection, schedule: Q04DX003 (ip), vehicle: Klucel (hydroxypropylcellulose) (HPC)) was 98 % of control.

For the compound `Cc1cc(C(=O)C(=O)O)c(CN2C(=O)c3ccccc3C2=O)c(=O)n1C`, the T/C (dose: 100.0 mg/kg/injection, schedule: Q01DX001 (ip), vehicle: saline with Tween-80) is 97 % of control; the T/C (dose: 200.0 mg/kg/injection, schedule: Q01DX001 (ip), vehicle: saline with Tween-80) is 107 % of control; the T/C (dose: 400.0 mg/kg/injection, schedule: Q01DX001 (ip), vehicle: saline with Tween-80) was 97 % of control.

On to `O=C1/C(=C/c2ccccn2)COc2ccccc21`, for which the T/C was 93 % of control under setting [18], 95 % of control under setting [19] and 103 % of control under setting [20].

Regarding `CCOC(OCC)C(C)(C)CNC`, the T/C by setting is: (dose: 100.0 mg/kg/injection, schedule: Q01DX001 (ip), vehicle: saline sonified) 90 % of control; (dose: 200.0 mg/kg/injection, schedule: Q01DX001 (ip), vehicle: saline sonified) 101 % of control; (dose: 400.0 mg/kg/injection, schedule: Q01DX001 (ip), vehicle: saline sonified) 107 % of control.

In the case of `CC(C)P(CP(=S)(c1ccccc1)c1ccccc1)c1ccccc1` (centres undefined), the T/C is 98 % of control under setting [18], 100 % of control under setting [19] and 93 % of control under setting [20].

With `CCCCCCCCCC(F)CCCCCCCC(=O)O` (centres undefined) (tested in a mixture with another compound), the T/C is 91 % of control under setting [12], 91 % of control under setting [13] and 95 % of control under setting [14].

As for `CC(=O)OC1CCC2(C)C(C)CC3C(=O)OC32C1` (centres undefined), the T/C by setting is: (dose: 100.0 mg/kg/injection, schedule: Q04DX003 (ip), vehicle: acetone) 87 % of control; (dose: 200.0 mg/kg/injection, schedule: Q04DX003 (ip), vehicle: acetone) 90 % of control.

As for `Cc1ccccc1Sc1ncnc2nc[nH]c12`, the T/C runs as follows: (dose: 100.0 mg/kg/injection, schedule: Q04DX003 (ip), vehicle: saline with Tween-80) 91 % of control; (dose: 200.0 mg/kg/injection, schedule: Q04DX003 (ip), vehicle: saline with Tween-80) 102 % of control; (dose: 400.0 mg/kg/injection, schedule: Q04DX003 (ip), vehicle: saline with Tween-80) 101 % of control.

Turning to `Cn1c(=O)c2[nH]c(CCC3CCCC3)nc2n(C)c1=O`, the T/C under setting [11] is 98 % of control, the T/C under setting [12] was 96 % of control, the T/C under setting [13] is 96 % of control and the T/C under setting [14] was 101 % of control.

With `Cc1cc(Cc2cc(C)c(N)cc2N)c(N)cc1N`, the T/C is 88 % of control under setting [12], 93 % of control under setting [13] and 90 % of control under setting [14].

Take `CCCNS(=O)(=O)c1cccc(C(N)=S)c1`: the T/C under setting [15] is 101 % of control, the T/C under setting [16] was 100 % of control and the T/C under setting [17] was 103 % of control.
